Measurements reported in patent publication US20040096851A1, “ABCA1 PEST domain-related compositions and methods” (priority 2002, published 2004).

Tests used:
[1] = test system: ABCA1 protein; test: ABCA1 protein level in primary mouse hepatocytes (Western); assay type: cell-based; conditions: apoA-I 10 μg/ml 3 hours
Description: Immunoprecipitation and immunoblot analysis of ABCA1: For immunoblot analysis of ABCA1, ABCA1-FLAG, and ABCA1delPEST-FLAG, transfected HEK293 cells, peritoneal macrophages, or primary hepatocytes were washed and scraped in PBS and lysed in RIPA buffer (10 mM Tris-HCl [pH 7.3], 1 mM MgCl2, 1.0% Nonidet P-40, 0.5% sodium deoxycholate, and 5 mM EDTA in the presence of protease inhibitors as follows: 0.5 μg/ml leupeptin, 1 μg/ml aprotinin, and 1 μg/ml pepstatin A) (Roche Molecular Biochemicals, Indianapolis, Ind., USA). Postnuclear supernatants containing the indicated amounts of protein were subjected to Western analysis using an anti-ABCA1 antiserum or anti-FLAG M2 antibody and chemiluminescence detection. The relative intensities of the bands were determined by densitometry. For cell surface ABCA1 analysis, cells were first biotinylated with 0.5 mg/ml EZ-Link Sulfo-NHS-SS-Biotin (Pierce Chemical Co., Rockford, Ill., USA) at 4° C. for 30 minutes. Then cells were lysed with RIPA buffer at 4° C. After centrifugation, the supernatant of cell lysates was incubated with anti-FLAG agarose beads overnight at 4° C. Following centrifugation and washing, the collected agarose beads were subjected to SDS-PAGE sample buffer with 100 mM 2-mercaptoethanol. The total or […] ABCA1 was detected by Western blot using either anti-FLAG antibody or streptavidin-horseradish peroxidase. […]

[2] = test system: ABCA1 protein; test: ABCA1 protein turnover and level in transiently transfected 293 cells (metabolic labeling, Western, cell surface biotinylation); assay type: cell-based, human
Description: Plasmid constructs and cell transfection: ABCA1-FLAG was constructed as described (18). ABCA1delPEST was based on ABCA1-FLAG. Using PCR, ABCA1delPEST was constructed by deleting a nucleotide sequence that encodes mouse ABCA1 amino acids 1283-1306 and was confirmed by sequencing. HEK293 cells, in 12- or 24-well collagen-coated plates, were transiently transfected with various plasmid constructs at indicated DNA concentrations with Lipofectamine 2000 (Invitrogen Corp., San Diego, Calif., USA) at 37° C. overnight (20 hours). A construct expressing green fluorescence protein (GFP) was routinely used to visually monitor transfection efficiency (i.e., the percentage of cells expressing GFP). The transfection efficiency of 293 cells was in the range of 50-80% of cells. […] In addition to performing multiple replicates within each experiment, all experiments were repeated on multiple separate occasions to confirm reproducibility of results.
(§1) Immunoprecipitation and immunoblot analysis of ABCA1: For immunoblot analysis of ABCA1, ABCA1-FLAG, and ABCA1delPEST-FLAG, transfected HEK293 cells, peritoneal macrophages, or primary hepatocytes were washed and scraped in PBS and lysed in RIPA buffer (10 mM Tris-HCl [pH 7.3], 1 mM MgCl2, 1.0% Nonidet P-40, 0.5% sodium deoxycholate, and 5 mM EDTA in the presence of protease inhibitors as follows: 0.5 μg/ml leupeptin, 1 μg/ml aprotinin, and 1 μg/ml pepstatin A) (Roche Molecular Biochemicals, Indianapolis, Ind., USA). Postnuclear supernatants containing the indicated amounts of protein were subjected to Western analysis using an anti-ABCA1 antiserum or anti-FLAG M2 antibody and chemiluminescence detection. The relative intensities of the bands were determined by densitometry. For cell surface ABCA1 analysis, cells were first biotinylated with 0.5 mg/ml EZ-Link Sulfo-NHS-SS-Biotin (Pierce Chemical Co., Rockford, Ill., USA) at 4° C. for 30 minutes. Then cells were lysed with RIPA buffer at 4° C. After centrifugation, the supernatant of cell lysates was incubated with anti-FLAG agarose beads overnight at 4° C. Following centrifugation and washing, the collected agarose beads were subjected to SDS-PAGE sample buffer with 100 mM 2-mercaptoethanol. The total or […] ABCA1 was detected by Western blot using either anti-FLAG antibody or streptavidin-horseradish peroxidase.

[3] = test system: ABCA1 protein; test: ABCA1 protein level in mouse peritoneal macrophages (Western); assay type: cell-based; conditions: cultured cells, short-term incubations, data not shown
[4] = test system: ABCA1 protein; test: as above; assay type: cell-based; conditions: for ABCA1 protein level, effect in words: mouse peritoneal macrophages, 3 hours, apoA-I 10 μg/ml, HDL2 50 μg protein/ml, MβCD 1 mM 5 min, apigenin 40 μM
Description: Cellular lipid efflux assays, apoA-I cell association, and chemical cross-linking: The assays were carried out as in (14). Generally, 293 cells were labeled by culturing overnight in media containing either [^3H]cholesterol, for cholesterol efflux, or [^3H]choline, for phospholipid efflux. The next day, cells were washed with fresh media before or after treatment as indicated, and then apoA-I was added as acceptor and incubated for the indicated period before the media and cells were collected for analysis. Mouse peritoneal macrophage cells were isolated from male mice by peritoneal lavage with PBS 3 days after intraperitoneal injection with 1 ml of 3.85% thioglycollate. The cells were labeled with […] [^3H]cholesterol overnight in DMEM and 0.2% BSA supplemented with 50 μg/ml acetylated LDL plus LXR/RXR ligands 22(R)-hydroxycholesterol and 9-cis retinoic acid (both 10 μM). After labeling, cells were washed and efflux was carried out with 10 μg/ml apoA-I for 3 hours. Then, cells and medium were collected for analysis. Cholesterol efflux was expressed as the percentage of the radioactivity released from the cells into the medium, relative to the total radioactivity in cells plus medium. For apoA-I cell association, cells were incubated with 0.2 μg/ml [^125 I]apoA-I in 0.2% BSA and DMEM for 1 hour at 37° C. After being washed three times with fresh media, cells were lysed with 0.1% SDS and 0.1N NaOH lysis buffer, and radioactivity was determined by a gamma counter.
as §1

[5] = test system: calpain protease; test: Degradation of a fluorescent calpain protease substrate in cells; assay type: cell-based; conditions: data not shown
[6] = molecular target: T1, ABCA1 (Mus musculus, UniProt P41233); test: Apolipoprotein A-I infusion in mice, ABCA1 in liver and peritoneal macrophages; assay type: in vivo; design: from tissue; host or cells: mouse liver and peritoneal macrophages
Description: […] Mice were anesthetized intraperitoneally with 0.1 ml/30 g body weight of a solution containing 100 mg/ml ketamine and 30 mg/ml xylazine. ApoA-I (20 mg/kg body weight) or BSA as control was administered via femoral vein as a bolus injection. Four hours after injection, animals were euthanized and the liver was dissected out for analysis.

[7] = molecular target: T1, ABCA1; test: Calpain-catalyzed proteolysis of metabolically labeled ABCA1 in digitonin-permeabilized 293 cells; assay type: cell-based; design: expressed in transfected cells; host or cells: 293 cells, digitonin-permeabilized
Description: (§2) Calpain-catalyzed proteolysis of metabolically labeled ABCA1: Transiently transfected 293 cells were pulse-labeled by [^35S]methionine (0.5 mCi/ml) in 0.2% BSA and DMEM for 2 hours. Cells were washed three times with fresh media and placed on ice for 10 minutes. Then cells were permeabilized by addition of 80 μg/ml digitonin in DMEM and incubated on ice for 15 minutes. Next, the cells were washed twice with fresh DMEM, and then purified μ-calpain in DMEM plus 2 mM CaCl2 was added at the indicated concentration and incubated for 20 minutes at room temperature. Then cells were lysed by addition of 1 ml RIPA buffer with 40 μg/ml calpeptin. FLAG-tagged ABCA1 was immunoprecipitated by anti-FLAG agarose beads and subjected to quantitative analysis by PhosphorImager.

[8] = test system: ABCA1 phosphorylation; test: Phosphorylation of ABCA1 in cells; assay type: cell-based
[9] = test system: ABCA1; conditions: macrophages loaded with acetyl-LDL and cholesterol ester; cited from earlier work
[10] = molecular target: T2, ABCA1 (Mus musculus, UniProt P41233, DEL1283-1306); test: Calpain-catalyzed proteolysis of metabolically labeled ABCA1 in digitonin-permeabilized 293 cells; assay type: cell-based; conditions: permeabilized 293 cells, purified μ-calpain
T2 construct: expressed in transfected cells; host or cells: 293 cells, digitonin-permeabilized
Description: as §2

[11] = 293 cells, apoA-I 10 μg/ml 3 hours
[12] = time-course study of apoA-I infusion
[13] = 293 cells, lactacystin 20 μM for 3 h

T1 sequence (P41233 whole entry, the tested form may be a part): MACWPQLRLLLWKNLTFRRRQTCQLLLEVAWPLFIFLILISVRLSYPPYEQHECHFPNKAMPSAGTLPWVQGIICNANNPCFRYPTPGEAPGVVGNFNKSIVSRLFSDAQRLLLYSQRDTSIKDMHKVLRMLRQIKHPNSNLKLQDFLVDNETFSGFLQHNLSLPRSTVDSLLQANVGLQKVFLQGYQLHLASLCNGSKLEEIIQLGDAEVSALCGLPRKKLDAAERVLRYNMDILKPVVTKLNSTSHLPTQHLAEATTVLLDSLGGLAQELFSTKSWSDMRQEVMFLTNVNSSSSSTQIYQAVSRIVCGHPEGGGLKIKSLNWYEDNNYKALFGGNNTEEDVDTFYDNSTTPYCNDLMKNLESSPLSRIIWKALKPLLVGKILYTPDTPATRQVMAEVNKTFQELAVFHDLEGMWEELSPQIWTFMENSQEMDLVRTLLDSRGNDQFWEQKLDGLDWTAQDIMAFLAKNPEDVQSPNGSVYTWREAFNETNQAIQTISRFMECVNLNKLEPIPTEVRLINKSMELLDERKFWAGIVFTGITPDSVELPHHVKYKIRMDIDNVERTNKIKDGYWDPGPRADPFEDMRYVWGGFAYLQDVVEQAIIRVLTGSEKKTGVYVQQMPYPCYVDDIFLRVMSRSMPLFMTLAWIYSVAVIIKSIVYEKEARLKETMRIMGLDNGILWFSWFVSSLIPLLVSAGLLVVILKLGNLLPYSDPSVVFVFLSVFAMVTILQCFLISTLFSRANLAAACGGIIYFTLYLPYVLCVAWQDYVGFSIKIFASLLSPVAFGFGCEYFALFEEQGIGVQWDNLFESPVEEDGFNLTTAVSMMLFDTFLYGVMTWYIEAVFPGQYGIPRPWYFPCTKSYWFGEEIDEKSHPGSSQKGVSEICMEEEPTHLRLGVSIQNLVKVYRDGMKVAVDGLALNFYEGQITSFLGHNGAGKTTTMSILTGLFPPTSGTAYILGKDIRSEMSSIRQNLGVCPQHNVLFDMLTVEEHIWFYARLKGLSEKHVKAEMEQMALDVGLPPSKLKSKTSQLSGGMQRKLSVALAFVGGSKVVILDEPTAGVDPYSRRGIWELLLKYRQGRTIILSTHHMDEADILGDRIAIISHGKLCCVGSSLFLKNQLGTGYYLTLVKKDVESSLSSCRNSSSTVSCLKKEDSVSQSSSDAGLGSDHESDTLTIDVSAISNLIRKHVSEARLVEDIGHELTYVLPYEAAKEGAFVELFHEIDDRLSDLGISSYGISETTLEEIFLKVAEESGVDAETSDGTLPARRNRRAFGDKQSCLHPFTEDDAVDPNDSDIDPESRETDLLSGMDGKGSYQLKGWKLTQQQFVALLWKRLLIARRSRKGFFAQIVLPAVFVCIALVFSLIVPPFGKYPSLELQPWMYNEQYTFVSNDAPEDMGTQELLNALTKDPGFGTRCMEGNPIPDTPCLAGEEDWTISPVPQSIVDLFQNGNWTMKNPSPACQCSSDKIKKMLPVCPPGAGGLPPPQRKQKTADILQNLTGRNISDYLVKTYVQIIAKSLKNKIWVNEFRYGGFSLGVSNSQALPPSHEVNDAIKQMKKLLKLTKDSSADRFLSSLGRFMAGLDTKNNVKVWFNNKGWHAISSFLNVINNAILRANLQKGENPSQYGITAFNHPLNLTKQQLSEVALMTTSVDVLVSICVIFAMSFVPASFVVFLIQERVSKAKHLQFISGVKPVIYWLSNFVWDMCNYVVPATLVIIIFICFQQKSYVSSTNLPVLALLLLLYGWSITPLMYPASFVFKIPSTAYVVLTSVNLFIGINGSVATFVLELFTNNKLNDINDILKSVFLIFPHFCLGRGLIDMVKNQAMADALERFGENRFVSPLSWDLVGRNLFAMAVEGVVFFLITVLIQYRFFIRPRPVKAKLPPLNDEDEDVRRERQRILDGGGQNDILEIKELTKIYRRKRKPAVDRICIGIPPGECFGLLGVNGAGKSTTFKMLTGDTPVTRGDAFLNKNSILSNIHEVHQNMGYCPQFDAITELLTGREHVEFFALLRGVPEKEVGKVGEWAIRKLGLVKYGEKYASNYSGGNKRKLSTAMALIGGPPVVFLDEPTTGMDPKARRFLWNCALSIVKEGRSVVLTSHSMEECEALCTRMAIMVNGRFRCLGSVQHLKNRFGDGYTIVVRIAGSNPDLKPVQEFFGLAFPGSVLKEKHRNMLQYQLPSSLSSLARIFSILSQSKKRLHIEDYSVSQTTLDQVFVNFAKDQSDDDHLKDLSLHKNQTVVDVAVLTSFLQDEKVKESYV
T2 sequence (P41233 with tags, fused parts or gaps DEL1283-1306): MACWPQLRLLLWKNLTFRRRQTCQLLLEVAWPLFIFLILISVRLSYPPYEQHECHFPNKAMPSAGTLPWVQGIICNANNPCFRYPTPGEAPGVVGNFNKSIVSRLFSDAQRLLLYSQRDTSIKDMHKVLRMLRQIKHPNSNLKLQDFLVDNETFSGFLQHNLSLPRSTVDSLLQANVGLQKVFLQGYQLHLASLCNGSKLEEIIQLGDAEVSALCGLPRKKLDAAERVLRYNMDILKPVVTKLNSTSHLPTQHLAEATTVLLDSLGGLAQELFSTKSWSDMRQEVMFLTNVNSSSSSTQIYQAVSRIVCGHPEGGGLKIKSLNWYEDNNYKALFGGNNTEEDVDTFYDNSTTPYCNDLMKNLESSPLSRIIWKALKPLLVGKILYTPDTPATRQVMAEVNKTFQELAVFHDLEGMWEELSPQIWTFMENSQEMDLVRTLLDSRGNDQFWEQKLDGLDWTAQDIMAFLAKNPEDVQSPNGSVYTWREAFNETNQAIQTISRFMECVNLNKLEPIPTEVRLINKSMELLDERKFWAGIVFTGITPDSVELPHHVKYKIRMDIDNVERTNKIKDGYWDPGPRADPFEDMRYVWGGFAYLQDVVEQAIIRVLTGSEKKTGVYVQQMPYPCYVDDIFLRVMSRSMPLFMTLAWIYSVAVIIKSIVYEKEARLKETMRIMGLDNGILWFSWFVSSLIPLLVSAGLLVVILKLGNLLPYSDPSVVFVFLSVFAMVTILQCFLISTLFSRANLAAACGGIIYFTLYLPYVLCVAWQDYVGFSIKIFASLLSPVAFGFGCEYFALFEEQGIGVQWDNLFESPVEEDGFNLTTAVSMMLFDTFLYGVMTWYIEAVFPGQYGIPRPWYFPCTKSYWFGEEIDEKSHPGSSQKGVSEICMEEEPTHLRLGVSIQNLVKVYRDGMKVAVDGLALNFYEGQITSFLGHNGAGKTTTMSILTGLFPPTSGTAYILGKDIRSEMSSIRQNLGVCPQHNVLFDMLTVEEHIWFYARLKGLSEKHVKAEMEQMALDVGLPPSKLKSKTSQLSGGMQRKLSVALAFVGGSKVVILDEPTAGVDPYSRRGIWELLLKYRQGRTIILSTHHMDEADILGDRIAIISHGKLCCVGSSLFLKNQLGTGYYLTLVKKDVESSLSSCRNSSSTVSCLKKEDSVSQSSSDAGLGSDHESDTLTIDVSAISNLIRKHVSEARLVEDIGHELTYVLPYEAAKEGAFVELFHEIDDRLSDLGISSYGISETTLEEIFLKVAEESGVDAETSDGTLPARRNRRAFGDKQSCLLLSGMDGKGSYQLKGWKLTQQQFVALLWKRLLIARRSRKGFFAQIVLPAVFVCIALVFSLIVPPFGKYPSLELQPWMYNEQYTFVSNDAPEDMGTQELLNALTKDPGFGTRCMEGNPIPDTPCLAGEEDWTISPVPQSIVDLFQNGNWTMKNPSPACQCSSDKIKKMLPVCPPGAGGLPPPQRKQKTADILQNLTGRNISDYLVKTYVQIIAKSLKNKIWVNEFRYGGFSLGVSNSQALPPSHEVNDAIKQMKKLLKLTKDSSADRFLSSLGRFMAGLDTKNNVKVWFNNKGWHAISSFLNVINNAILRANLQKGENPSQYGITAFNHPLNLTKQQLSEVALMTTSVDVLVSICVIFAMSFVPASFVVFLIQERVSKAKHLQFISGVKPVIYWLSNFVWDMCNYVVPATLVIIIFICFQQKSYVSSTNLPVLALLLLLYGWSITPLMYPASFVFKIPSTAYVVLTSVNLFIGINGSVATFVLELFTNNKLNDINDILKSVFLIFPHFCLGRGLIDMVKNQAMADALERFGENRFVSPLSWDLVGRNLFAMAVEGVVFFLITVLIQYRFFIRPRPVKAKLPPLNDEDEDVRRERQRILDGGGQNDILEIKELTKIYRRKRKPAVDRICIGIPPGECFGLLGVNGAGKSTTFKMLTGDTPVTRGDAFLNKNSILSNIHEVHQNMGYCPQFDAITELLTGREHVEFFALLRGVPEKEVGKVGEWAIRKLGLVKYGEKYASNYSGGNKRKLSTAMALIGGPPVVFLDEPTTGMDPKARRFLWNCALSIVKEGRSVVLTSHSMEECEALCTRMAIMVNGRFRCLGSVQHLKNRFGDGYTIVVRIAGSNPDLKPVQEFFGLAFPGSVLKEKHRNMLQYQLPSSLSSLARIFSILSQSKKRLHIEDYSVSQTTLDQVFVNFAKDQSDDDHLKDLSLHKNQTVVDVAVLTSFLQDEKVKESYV

CCCC[C@@H](C=O)NC(=O)[C@H](CC(C)C)NC(=O)OCc1ccccc1 [calpeptin]
ABCA1 protein level, effect in words [1]: increased | effect of calpeptin on ABCA1delPEST (PEST sequence deleted) ([2]; 293 cells, calpeptin 30 μg/ml for 3 hours): abolished | mean increase in ABCA1 protein levels ([2]; 293 cells, calpeptin 30 μg/ml for 3 hours, p<0.001): 3.84±0.32 fold | cell surface ABCA1, effect in words ([2]; calpeptin): marked increase | ABCA1 mRNA [3]: without any change | ABCA1 protein level, effect in words [4]: increased

apoE: apoprotein ligand of ABCA1
effect on ABCA1 in primary macrophage cultures [4]: stabilization

C=C1[C@@H](O)[C@@H]2O[C@]3(CC[C@H](/C=C/[C@@H](C)[C@@H]4CC(C)=C[C@@]5(O[C@H](C[C@@](C)(O)C(=O)O)CC[C@H]5O)O4)O3)CC[C@H]2O[C@@H]1[C@@H](O)C[C@H](C)[C@H]1O[C@@]2(CCCCO2)CC[C@H]1C [okadaic acid]
ability of apoA-I to increase ABCA1 protein levels ([4]; macrophages): abolished

apoA-I: Human apoA-I (BIODESIGN International), dialyzed against PBS; apolipoprotein ligand of ABCA1
ABCA1 protein level, effect in words [1]: rapid, marked increase | cellular expression levels of ABCA1delPEST [2, 11]: no effect | protein levels of Walker motif mutant ABCA1 [2, 11]: no increase | ABCA1 protein level, effect in words ([2]; 293 cells, wild type ABCA1, apoA-I 10 μg/ml 3 hours): rapid, marked increase | level of ABCA1-W590S mutant ([2]; mutant binds apoA-I but does not mediate lipid efflux, data not shown): fails to increase | ubiquitination levels of ABCA1 ([2]; with or without proteasome inhibitors, data not shown): did not decrease | ABCA1 mRNA [3]: did not change | degradation of fluorescent calpain protease substrate [5]: no change | ABCA1 protein in liver ([6]; mice, intravenous apoA-I 20 mg/kg, 4 hours, chow-fed): induction | ABCA1 protein in peritoneal macrophages ([6]; mice, intravenous apoA-I, 4 hours, high-fat, high-cholesterol diet for 7 days): induction | ABCA1 mRNA levels in liver ([6]; quantitative real-time PCR, data not shown): did not significantly alter | ABCA1 protein levels after 24 hours [6, 12]: returned to base line | time for which the increase in ABCA1 was sustained [6, 12]: 8 h | ability of calpain to mediate proteolysis of ABCA1 after pre-treatment ([7]; apoA-I 10 μg/ml for 3 hours prior to permeabilization): abolished | phosphorylation of ABCA1 [8]: time- and dose-dependent reduction | cell surface expression of ABCA1 ([4]; macrophages, 3 hours apoA-I, biotinylation): increased | ABCA1 protein level, effect in words [4]: rapid, marked increase | effect on ABCA1 in primary macrophage cultures [4]: stabilization

methy-β-cyclodextrin
ABCA1 protein level, effect in words [4]: no effect

O=c1cc(-c2ccc(O)cc2)oc2cc(O)cc(O)c12 [apigenin, reference compound]
phosphorylation of ABCA1 [8]: decrease | ABCA1 protein level, effect in words [4]: increase

CC(=O)N[C@@H](CSC(=O)[C@]1([C@@H](O)C(C)C)NC(=O)[C@H](C)[C@@H]1O)C(=O)O [lactacystin]
accumulation of total and cell surface ubiquitinated ABCA1 [2, 13]: increase in the accumulation | increase in total ABCA1 levels [2, 13]: 2.2 fold | increase in cell surface ABCA1 levels ([2]; 293 cells, lactacystin, data not shown): 2.2 fold | ABCA1 level [9]: increased | ABCA1 level ([4]; acetyl-LDL-loaded, LXR/RXR-activated macrophages, data not shown): increased

B1: μ-calpain: Purified μ-calpain protease from Calbiochem-Novabiochem (protein, UniProt P07384 2-714; P04632 1-268, looked up)
Calpain-1 catalytic subunit: SEEIITPVYCTGVSAQVQKQRARELGLGRHENAIKYLGQDYEQLRVRCLQSGTLFRDEAFPPVPQSLGYKDLGPNSSKTYGIKWKRPTELLSNPQFIVDGATRTDICQGALGDCWLLAAIASLTLNDTLLHRVVPHGQSFQNGYAGIFHFQLWQFGEWVDVVVDDLLPIKDGKLVFVHSAEGNEFWSALLEKAYAKVNGSYEALSGGSTSEGFEDFTGGVTEWYELRKAPSDLYQIILKALERGSLLGCSIDISSVLDMEAITFKKLVKGHAYSVTGAKQVNYRGQVVSLIRMRNPWGEVEWTGAWSDSSSEWNNVDPYERDQLRVKMEDGEFWMSFRDFMREFTRLEICNLTPDALKSRTIRKWNTTLYEGTWRRGSTAGGCRNYPATFWVNPQFKIRLDETDDPDDYGDRESGCSFVLALMQKHRRRERRFGRDMETIGFAVYEVPPELVGQPAVHLKRDFFLANASRARSEQFINLREVSTRFRLPPGEYVVVPSTFEPNKEGDFVLRFFSEKSAGTVELDDQIQANLPDEQVLSEEEIDENFKALFRQLAGEDMEISVKELRTILNRIISKHKDLRTKGFSLESCRSMVNLMDRDGNGKLGLVEFNILWNRIRNYLSIFRKFDLDKSGSMSAYEMRMAIESAGFKLNKKLYELIITRYSEPDLAVDFDNFVCCLVRLETMFRFFKTLDTDLDGVVTFDLFKWLQLTMFA
Calpain small subunit 1: MFLVNSFLKGGGGGGGGGGGLGGGLGNVLGGLISGAGGGGGGGGGGGGGGGGGGGGTAMRILGGVISAISEAAAQYNPEPPPPRTHYSNIEANESEEVRQFRRLFAQLAGDDMEVSATELMNILNKVVTRHPDLKTDGFGIDTCRSMVAVMDSDTTGKLGFEEFKYLWNNIKRWQAIYKQFDTDRSGTICSSELPGAFEAAGFHLNEHLYNMIIRRYSDESGNMDFDNFISCLVRLDAMFRAFKSLDKDGTGQIQVNIQEWLQLTMYS
degradation of wild type ABCA1 ([7]; permeabilized 293 cells, purified μ-calpain): efficient degradation | degradation of ABCA1delPEST [10]: no appreciable degradation
